Laboratory results published in patent publication US10519140B2, “Indolin-2-one derivatives” (Hoffmann-La Roche Inc., priority 2015, dated 2019).

Key:
[1] = tested on: mice; experiment: SmartCube behavioral signature similarity analysis; assay type: in vivo; conditions: for discrimination rate vs Clozapine (1.0 mg/kg) / discrimination rate vs Olanzapine (0.25 mg/kg) / discrimination rate vs Risperidone (0.06 mg/kg): rate of 0.70 or lower = similar; for SmartCube behavioral signature class: i.p.
Text: In addition to the reversal of L-687,414 induced hyperlocomotion experiment as described above, some compounds of the present invention have been tested in SmartCube®, an automated system in which the behaviors of compound-treated mice in response to multiple challenges are captured by digital video and analyzed with computer algorithms (Roberds et al., Frontiers in Neuroscience, 2011, Vol. 5, Art. 103, 1-4; Vadim Alexandrov, Dani Brunner, Taleen Hanania, Emer Leahy Eur. J Pharmacol. 2015, 750, 82-99). In this way, the neuro-pharmacological effects of a test compound can be predicted by similarity to major classes of compounds, such as antipsychotics, anxiolytics and antidepressants. […] In addition to the above-mentioned experiments, it has been shown that some of the compounds of formula I are also ENT1 inhibitors (equilibrative nucleoside transporter 1 protein). Therapeutic potential of ENT1 inhibitors is directly or indirectly (via effects of adenosine and/or adenosine receptor modulation) described in the literature for the treatment of the following diseases: autoimmune disease (US 2006/253263), cancer (WO9857643), viral infections and fungal infections (WO2004060902), neurodegenerative disease, Parkinson's disease, Alzheimer's disease, Huntington's disease, amyotrophic lateral sclerosis, psychiatric diseases, substance abuse, ADHD, depression, epilepsy, anxiety, schizophrenia (WO0168105, EP 1252910, EP1612210, WO2009018275), autism spectrum disorders (Susan A. Masinoa, Masahito Kawamura Jr., Jessica L. Cotea, Rebecca B. Williams, David N. Ruskina, Neuropharmacology, 2013, 68, 116-121, pain (WO2009062990, WO2009064497), inflammation, asthma, (US 2007213296, Inflammation research, 2011, 60, 75-76), cardiovascular diseases (Trends in Pharmacological science, 2006, 27, 416-425), sleep disorders, (Psychopharmacology, 1987, 91, 434-439), and ophthalmology and inflammatory retinal diseases (World Journal of Diabetes, vol. 1, 12-18), epilepsy and neurodevelopmental disorders with co-morbid epilepsy (ENT1 Inhibition Attenuates Epileptic Seizure Severity Via Regulation of Glutamatergic Neurotransmission, Xu et al, Neuromol Med (2015) 17:1-11 and Epigenetic changes induced by adenosine augmentation therapy prevent epileptogenesis, Williams-Karneshy et al J Clin Invest. 2013 August; 123(8):3552-63.
As mentioned above, some compounds have been tested in SmartCube®, an analytical system developed by PsychoGenics Inc.
SmartCube® was used to compare the behavioral signature of a test compound to a database of behavioral signatures obtained from a large set of clinically approved reference drugs, grouped per indications. In this way, the neuro-pharmacological effects of a test compound can be predicted by similarity to major classes of compounds, such as antipsychotics, anxiolytics and antidepressants. This approach is ideally suited to screen collections of existing drugs or drug candidates with previously unknown neuropharmacology, which could expedite the development of new and unexpected treatments for psychiatric disorders.
Some compounds of the present invention were injected i.p. at different doses 15 minutes before the test. At least 8 mice were used in each treatment group. Digital videos of the subjects were processed with computer vision algorithms to extract over 2000 dependent measures including frequency and duration of many different behavioral states. The results of the classifications are presented as bar charts for each compound and dose (mg/kg), the Y-axis indicates the relative probability that the test compound will show efficacy in the specific CNS indication.
Compounds of the present invention show similar signatures to those of atypical antipsychotics. An independent analysis was performed on the unclassified data to determine the similarity of the example compounds to active doses of known atypical antipsychotics. […]

[2] = tested on: L-687,414-induced hyperlocomotion; experiment: L-687,414-induced hyperlocomotion; assay type: in vivo; conditions: Mus musculus; mice; dose 30 mg/kg ip, 15 min before 50 mg/kg s.c. L-687,414
Text: The authors described that hyperlocomotion induced by L-687,414 was inhibited by a series of known antipsychotic drugs. […] These findings predict antipsychotic activity for the present compounds, making them useful for the treatment of positive (psychosis) and negative symptoms of schizophrenia, substance abuse, alcohol and drug addiction, obsessive-compulsive disorders, cognitive impairment, bipolar disorders, mood disorders, major depression, resistant depression, anxiety disorders, Alzheimer's disease, autism, Parkinson's disease, chronic pain, borderline personality disorder, sleep disturbances, chronic fatigue syndrome, stiffness, antiinflammatory effects in arthritis and balance problems, and treatment of epilepsy and neurodevelopmental disorders with co-morbid epilepsy.
The described compounds of formula I reduce L-687,414-induced hyperlocomotion. This was assessed by using a computerized Digiscan 16 Animal Activity Monitoring System (Omnitech Electronics, Columbus, Ohio) to quantify locomotor activity. Animals were kept under a 12 h light/dark cycle and experiments were performed during the light period. Each activity monitoring chamber consisted of a Plexiglas box (41×41×28 cm; W×L×H) with sawdust bedding on the floor surrounded by invisible horizontal and vertical infrared sensor beams. The test boxes were divided by a Plexiglas cross providing each mouse with 20×20 cm of moving space. Cages were connected to a Digiscan Analyzer linked to a computer that constantly collected the beam status information. Records of photocell beam interruptions for individual animals were taken every 5 min over the duration of the experimental session and the sum of the first 6 periods was used as the final parameter. At least 8 mice were used in each treatment group. Compounds were administered i.p. 15 min before a s.c. injection of 50 mg/kg of L-687,414. Mice were then transferred from their home cage to the recording chambers for a 15-min habituation phase allowing free exploration of the new environment. Horizontal activity was then recorded for a 30-min time period. The % inhibition of L-687,414-induced hyperlocomotion was calculated according to the equation: ((Veh+L-687,414 horizontal activity−drug+L-687,414 horizontal activity)/Veh+L−687,414 horizontal activity)×100
ID50 values, defined as doses of each compound producing 50% inhibition of L-687,414-induced hyperlocomotion, were calculated by linear regression analysis of a dose-response data using an Excel-based computer-fitting program.
As data was not presupposed to be normally distributed, groups treated with test compounds were statistically compared with the control (vehicle-treated) group using one-tailed Mann Whitney U tests. In statistics, the Mann-Whitney Utest (also called the Mann-Whitney-Wilcoxon (MWW) or Wilcoxon rank-sum test) is a non-parametric statistical hypothesis test for assessing whether one of two samples of independent observations tends to have larger values than the other. It is one of the most well-known non-parametric significance tests. […] P values given in table 1 are one-tailed since only decreases in locomotion were expected and tested for (Mann, H. B., Whitney, D. R. (1947), “On a Test of Whether one of Two Random Variables is Stochastically Larger than the Other”, Annals of Mathematical Statistics, 18 (1), 50-60).

Compound	discrimination rate vs Clozapine (1.0 mg/kg) ([1]; example at 3 mg/kg i.p.)	discrimination rate vs Olanzapine (0.25 mg/kg) ([1]; example at 3 mg/kg i.p.)	discrimination rate vs Risperidone (0.06 mg/kg) ([1]; example at 3 mg/kg i.p.)	SmartCube behavioral signature class [1]	inhibition in vivo at 30 mg/kg [2] [%]	discrimination rate vs Clozapine (1.0 mg/kg) ([1]; example at 5 mg/kg i.p.)	discrimination rate vs Olanzapine (0.25 mg/kg) ([1]; example at 5 mg/kg i.p.)	discrimination rate vs Risperidone (0.06 mg/kg) ([1]; example at 5 mg/kg i.p.)
Cc1ncc(-c2ccc3c(c2)N(c2cnc4c(c2)C(C)(C)C(=O)N4C)C(=O)C3(C)C)cn1 [Example 54, 5-(3,3-Dimethyl-6-(2-methylpyrimidin-5-yl)-2-oxoindolin-1-yl)-1,3,3-trimethyl-1H-pyrrolo[2,3-b]pyridin-2(3H)-one]	0.54	0.51	0.57	similarity to atypical antipsychotics	93.5			
Cc1ncc(-c2ccc3c(c2)N(c2cnc(-n4ccnc4C)cn2)C(=O)C3(C)C)cn1 [Example 50, 3,3-Dimethyl-1-(5-(2-methyl-1H-imidazol-1-yl)pyrazin-2-yl)-6-(2-methylpyrimidin-5-yl)indolin-2-one]	0.52	0.51	0.63	similarity to atypical antipsychotics	96.3			
Cc1ncc(-c2ccc3c(c2)N(c2ccc4c(n2)N(C)C(=O)C4(C)C)C(=O)C3(C)C)cn1 [Example 39, 6-(3,3-Dimethyl-6-(2-methylpyrimidin-5-yl)-2-oxoindolin-1-yl)-1,3,3-trimethyl-1H-pyrrolo[2,3-b]pyridin-2(3H)-one]	0.59	0.58	0.62	similarity to atypical antipsychotics	99.5			
Cc1ncc(-c2ccc3c(c2)N(c2cncc(N4CCOCC4)n2)C(=O)C3(C)C)cn1 [Example 1, 3,3-Dimethyl-6-(2-methylpyrimidin-5-yl)-1-(6-morpholinopyrazin-2-yl)indolin-2-one]	0.56	0.59	0.83	similarity to atypical antipsychotics	90			
Cc1ncc(-c2ccc3c(c2)N(c2cncc(N4CCCC4=O)n2)C(=O)C3(C)C)cn1 [Example 3, 3,3-Dimethyl-6-(2-methylpyrimidin-5-yl)-1-(6-(2-oxopyrrolidin-1-yl)pyrazin-2-yl)indolin-2-one]				similarity to atypical antipsychotics	87.8	0.62	0.66	0.68
Cc1ncc(-c2ccc3c(c2)N(c2cnc(C)c(N4CCOC4=O)n2)C(=O)C3(C)C)cn1 [Example 20, 3-(6-(3,3-Dimethyl-6-(2-methylpyrimidin-5-yl)-2-oxoindolin-1-yl)-3-methylpyrazin-2-yl)oxazolidin-2-one]	0.53	0.51	0.57	similarity to atypical antipsychotics	89.7			
Cc1ncc(-c2ccc3c(c2)N(c2cnc(C)c(N4CCOCC4)n2)C(=O)C3(C)C)cn1 [Example 18, 3,3-Dimethyl-1-(5-methyl-6-morpholinopyrazin-2-yl)-6-(2-methylpyrimidin-5-yl)indolin-2-one]	0.61	0.62	0.73	similarity to atypical antipsychotics	88.8			
Cc1ncc(-c2ccc3c(c2)N(c2cncc(N4CCOC4=O)n2)C(=O)C3(C)C)cn1 [Example 15, 3-(6-(3,3-Dimethyl-6-(2-methylpyrimidin-5-yl)-2-oxoindolin-1-yl)pyrazin-2-yl)oxazolidin-2-one]	0.57	0.56	0.59	similarity to atypical antipsychotics	87.1			
